Assay results as given in patent publication US9359281B2, “Enantiomers of 2-hydroxy derivatives of fatty acids” (UNIVERSITAT DE LES ILLES BALEARS, priority 2011, dated 2016).

Test system: A549 cells
Test: Cell growth inhibition, A549
Assay type: cell-based, human
From the text: At this respect, concentrations which inhibit growth of tumour cells (IC50) are lower for the enantiomer S ([−]) in all studied tumour lines (Table 5). […] In all of the cases, the molecules employed were in the form of sodium salt.

[1] = Homo sapiens, A549, A549, sodium salt form

An IC50 (A549, sodium salt form) of 69.9 ± 11.2 µM was found for `CCCCC/C=C\C/C=C\CCCCCCC(O)C(=O)O` (stereo not drawn) [[−]2OH18:2] [2-hydroxylinoleic acid] in this work.

An IC50 (A549, sodium salt form) of 110 ± 14 µM was found for `CCCCCC/C=C\CCCCCCC(O)C(=O)O` (stereo not drawn) [[−]2OH16:1] [2-hydroxypalmitoleic acid] in this work.

An IC50 [1] of 193 ± 9.3 µM was found for `CCCCCC/C=C\CCCCCCC(O)C(=O)O` (racemic) [Racemic 2OH16:1, 2-hydroxypalmitoleic acid] in this work.

An IC50 (A549, sodium salt form) of 299 ± 34.2 µM was found for `CCCCCC/C=C\CCCCCCC(O)C(=O)O` (stereo not drawn) [[+]2OH16:1] [2-hydroxypalmitoleic acid] in this work.

An IC50 (A549, sodium salt form) of 155 ± 7.5 µM was found for `CCCCC/C=C\C/C=C\C/C=C\CCCC(O)C(=O)O` (stereo not drawn) [[−]2OH18:3g] [2-hydroxy-γ-linoleic acid] in this work.

An IC50 (A549, sodium salt form) of 351 ± 22.7 µM was found for `CC/C=C\C/C=C\C/C=C\CCCCCCC(O)C(=O)O` (stereo not drawn) [[+]2OH18:3a] [2-hydroxy-α-linoleic acid] in this work.

An IC50 (A549, sodium salt form) of 342 ± 31.5 µM was found for `CCCCC/C=C\C/C=C\C/C=C\CCCC(O)C(=O)O` (stereo not drawn) [[+]2OH18:3g] [2-hydroxy-γ-linoleic acid] in this work.

An IC50 (A549, sodium salt form) of 186 ± 21.9 µM was found for `CCCCC/C=C\C/C=C\CCCCCCC(O)C(=O)O` (stereo not drawn) [[+]2OH18:2] [2-hydroxylinoleic acid] in this work.

An IC50 (A549, sodium salt form) of 219 ± 15.4 µM was found for `CC/C=C\C/C=C\C/C=C\CCCCCCC(O)C(=O)O` (racemic) [Racemic 2OH18:3a, 2-hydroxy-α-linoleic acid] in this work.

An IC50 (A549, sodium salt form) of 146 ± 10.9 µM was found for `CC/C=C\C/C=C\C/C=C\CCCCCCC(O)C(=O)O` (stereo not drawn) [[−]2OH18:3a] [2-hydroxy-α-linoleic acid] in this work.

An IC50 (A549, sodium salt form) of 206 ± 21.7 µM was found for `CCCCC/C=C\C/C=C\C/C=C\CCCC(O)C(=O)O` (racemic) [Racemic 2OH18:3g, 2-hydroxy-γ-linoleic acid] in this work.

An IC50 [1] of 105 ± 4.1 µM was found for `CCCCC/C=C\C/C=C\CCCCCCC(O)C(=O)O` (racemic) [Racemic 2OH18:2, 2-hydroxylinoleic acid] in this work.
